Tests used:
human NK1 receptor = molecular target: T1, human NK1 receptor (Homo sapiens, UniProt P25103); experiment: SP Receptor Binding Assay (Test A); conditions: human NK1 receptor in MEL cells
T1 construct: expressed in transfected cells; host or cells: Mouse Erythroleukemia (MEL) cells
Source text: SP Receptor Binding Assay (Test A)
The human NK1 receptor was isolated and characterized as described in: B. Hopkins, et al. "Isolation and characterization of the human lung NK1 receptor cDNA" Biochem. Biophys. Res. Comm., 1991, 180, 1110-1117; and the NK1 receptor was expressed in Mouse Erythroleukemia (MEL) cells using a procedure similar to that described in Test B below.
(§1) The selectivity of a Compound for binding at the NK1 and the NK2 receptors may be shown by determining its binding at other receptors using standard assays, for example, one using a tritiated derivative of NKB in a tissue preparation selective for NK3 receptors.

human NK2 receptor = molecular target: T2, human NK2 receptor (Homo sapiens, UniProt P21452); experiment: Neurokinin A (NKA) Receptor Binding Assay (Test B); conditions: human NK2 receptor in MEL cells
T2 construct: expressed in transfected cells; host or cells: Mouse Erythroleukemia (MEL) cells
T2 sequence (P21452 1-398): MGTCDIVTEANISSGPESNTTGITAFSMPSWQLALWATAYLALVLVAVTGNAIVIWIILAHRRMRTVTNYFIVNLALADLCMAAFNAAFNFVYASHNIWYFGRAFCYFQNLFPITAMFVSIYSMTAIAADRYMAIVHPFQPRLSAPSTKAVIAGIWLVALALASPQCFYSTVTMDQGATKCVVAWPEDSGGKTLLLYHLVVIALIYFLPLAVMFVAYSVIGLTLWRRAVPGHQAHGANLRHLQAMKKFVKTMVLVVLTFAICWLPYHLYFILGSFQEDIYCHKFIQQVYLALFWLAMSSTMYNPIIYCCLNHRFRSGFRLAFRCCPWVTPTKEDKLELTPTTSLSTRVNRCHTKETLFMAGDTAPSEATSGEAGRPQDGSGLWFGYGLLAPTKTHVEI
Source text: Neurokinin A (NKA) Receptor Binding Assay (Test B)
as §1

T1 sequence (P25103 whole entry): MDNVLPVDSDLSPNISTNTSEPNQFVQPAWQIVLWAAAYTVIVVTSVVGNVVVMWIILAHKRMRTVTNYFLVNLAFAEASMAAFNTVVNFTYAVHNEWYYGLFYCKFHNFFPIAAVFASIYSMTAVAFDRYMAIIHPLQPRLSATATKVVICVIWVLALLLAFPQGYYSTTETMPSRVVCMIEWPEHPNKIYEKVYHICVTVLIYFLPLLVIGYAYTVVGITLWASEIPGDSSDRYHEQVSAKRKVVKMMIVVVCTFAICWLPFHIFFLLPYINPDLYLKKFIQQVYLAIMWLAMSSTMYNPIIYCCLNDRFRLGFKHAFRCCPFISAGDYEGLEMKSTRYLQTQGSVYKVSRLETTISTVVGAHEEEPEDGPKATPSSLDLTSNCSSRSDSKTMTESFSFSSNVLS

Which Ki (human NK1 receptor) does the source give for `CC(=O)NC1(c2ccccc2)CCN(CCC(OC(=O)NCc2ccccc2)c2ccc(Cl)c(Cl)c2)CC1` (centres unmarked) [Example 1, N-Benzyl-3-(4-acetamido4-phenylpiperidino)-1-(3,4-dichlorophenyl)propyl carbamate] here?
The Ki was 163 nM.

What about the Ki (human NK2 receptor) of the same compound?
The Ki was 6.81 nM.
